Source: US20190322676A1, “CERAMIDE GALACTOSYLTRANSFERASE INHIBITORS FOR THE TREATMENT OF DISEASE” (BioMarin Pharmaceutical Inc., priority 2016, published 2019)
Counter-ions that a name gives are not always drawn.

Target: T1, human CGT (ceramide galactosyltransferase), CHO/CGT lysate (Homo sapiens, UniProt Q16880)
T1 construct: Full-length human CGT cDNA was cloned into the BamH1/Xho1 site of pcDNA3.1 (+); expressed in transfected cells; host or cells: Chinese hamster ovary (CHO) cells; lysate prepared with M-PER
T1 sequence (Q16880 21-541): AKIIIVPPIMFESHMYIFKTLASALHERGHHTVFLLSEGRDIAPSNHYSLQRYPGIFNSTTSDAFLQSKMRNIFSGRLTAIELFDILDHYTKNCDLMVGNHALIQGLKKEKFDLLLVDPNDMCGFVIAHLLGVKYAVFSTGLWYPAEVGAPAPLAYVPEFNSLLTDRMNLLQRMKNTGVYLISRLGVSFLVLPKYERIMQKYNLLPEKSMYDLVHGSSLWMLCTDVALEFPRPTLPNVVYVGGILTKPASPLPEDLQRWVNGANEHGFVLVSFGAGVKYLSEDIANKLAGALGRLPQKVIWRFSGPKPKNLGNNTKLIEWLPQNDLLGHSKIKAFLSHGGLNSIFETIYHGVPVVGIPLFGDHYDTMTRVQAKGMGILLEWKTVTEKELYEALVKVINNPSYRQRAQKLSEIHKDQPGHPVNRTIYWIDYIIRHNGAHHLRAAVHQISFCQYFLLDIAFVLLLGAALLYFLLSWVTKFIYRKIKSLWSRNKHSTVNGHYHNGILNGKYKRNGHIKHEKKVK
Experiment: CGT enzyme assay, RapidFire/MS/MS readout (Table 1 ranges with one asterisk *)
Assay type: biochemical
Conditions: RapidFire method (range with one asterisk *)
Experimental: Full-length human CGT cDNA was cloned into the BamH1/Xho1 site of pcDNA3.1 (+) mammalian expression vector (V90-20, Invitrogen, Carlsbad, Calif.) and the plasmid was transfected into Chinese hamster ovary (CHO) cells. Lysate was prepared using M-PER (Mammalian Protein Extraction Reagent, ThermoFisher Scientific, Grand Island, N.Y.) in the presence of a protease inhibitor cocktail (P8340, Sigma, Saint Louis, Mo.). Each 100 mm dish (100% confluent, approximately 1×10^7 cells) was lysed with 250 μL of M-PER containing protease inhibitors. Protein concentration was determined using a Pierce BCA protein assay kit (ThermoFisher Scientific). Four micrograms of CHO/CGT lysate was incubated with various concentrations of a compound (0.001 μM-50 μM) in 10 mM HEPES (pH 7.2) containing 35 μM dioleoylphosphatidylcholine, 5 mM MgCl2, 5 mM MnCl2, 1% BSA, 15 mM KCl, 1 mM EGTA, 8 mM CHAPS, 10 μM C6-NBD-dihydro-ceramide and 17.5 μM UDP-galactose in a final reaction volume of 20 μL at 37° C. for 1 hour. The final concentration of DMSO was 0.5% in both compound-treated and mock-treated samples. Tween 80 (0.01%) was optionally added to the reaction mixture to help solubilize the compounds. Each individual reaction was diluted with 80 μL of methanol:acetronitrile (1:3) containing 5 μM N-docdecanoyl-NBD-galactosylceramide (internal standard) to stop the reaction. 200 μL H2O:acetonitile (1:1) was added to precipitate the protein. After sufficient mixing, the plates were centrifuged at 2469 g for 38 minutes, 200 μL of supernatant was transferred to a LC/MS 96-deep well plate and a second spin was performed at 2469 g for 10 minutes. The final supernatant was injected in triplicate for RapidFire/MS/MS analysis.
Quantitative Analysis Using the RapidFire/MS/MS Method:
The quantitative analysis of C6-NBD-dihydro-ceramide and C6-NBD-dihydro-galactosylceramide was performed on a Rapid Fire 360 high-throughput mass spectrometry system (Agilent Technologies, Palo Alto, Calif.) coupled with a API4000^+ triple quadrupole mass spectrometer (Applied Biosystems, Concord, Ontario, Canada). RapidFire software packages, including RapidFire Control panel, RapidFire UI and RapidFire Integrator (Agilent Technologies), were used to control the RapidFire instrument and to process data. Analyst 1.6.2 software packages (Applied Biosystems) were used to control the MS system and acquire MS data. […] of sample was loaded on a micro-scale C4 solid-phase extraction (SPE) cartridge (Agilent Technologies) and salts were removed using water supplemented with 0.1% formic acid at the flow rate of 1.5 mL/min for 3 sec. C6-NBD-dihydro-ceramide and C6-NBD-dihydro-galactosylceramide were co-eluted into the mass spectrometer using acetonitrile containing 0.1% formic acid at the flow rate of 1.0 mL/min for 3 sec. The total cycle time of one injection was 8 secs. The MS/MS detection was performed in ESI negative mode. The mass transition of C6-NBD-dihydro-galactosylceramide was m/z 752.6→678.6 using a −40 V collision energy, the mass transition of C6-NBD-dihydro-ceramide was m/z 590.6→115.8 using a −40 V collision energy and the mass transition of N-docdecanoyl-NBD-galactosylceramide was m/z 820.9→746.3 using a −45 V collision energy.
The C6-NBD-dihydro-galactosylceramide reading was normalized first by dividing the peak area of C6-NBD-dihydro-galactosylceramide by the peak area of the internal standard, N-docdecanoyl-NBD-galactosylceramide. IC50 values (see Table 1, where data ranges with one asterix (*) correspond to analysis using the RapidFire/MS/MS method, and data ranges with two asterixes (**) correspond to analysis using the RapidFire/MS/MS method with 0.01% Tween added) were generated from sigmoidal dose-response curves (variable slope) with GraphPad Prism software (GraphPad Software, Inc., San Diego, Calif.) using the normalized peak areas of C6-NBD-dihydro-galactosylceramide or the percent inhibition of C6-NBD-dihydro-galactosylceramide accumulation relative to DMSO control. […]

Structure (SMILES) | IC50 [µM]
COc1cc(C(F)(F)[C@@H](NS(=O)(=O)c2ccc3cc(OC4CCCC4)ccc3c2)C(=O)N2C3CCC2CC(N)C3)ccc1Cl (single isomer, unassigned) [Compound 124-2] | 1 to 10
NC1CC2CCC(C1)N2C(=O)[C@@H](NS(=O)(=O)c1ccc2cc(OC3CCCC3)ccc2c1)C(F)(F)c1ccc(Cl)cc1 (stereo partly drawn) [Compound 28-1, N-((2R)-3-(3-amino-8-azabicyclo[3.2.1]octan-8-yl)-1-(4-chlorophenyl)-1,1-difluoro-3-oxopropan-2-yl)-6-(cyclopentyloxy)naphthalene-2-sulfonamide trifluoroacetate] | < 1
NC1CC2CCC(C1)N2C(=O)[C@H](NS(=O)(=O)c1ccc2cc(OC3CCCC3)ccc2c1)C(F)(F)c1ccc(Cl)cc1 (stereo partly drawn) [Compound 28-2, N-((2S)-3-(3-amino-8-azabicyclo[3.2.1]octan-8-yl)-1-(4-chlorophenyl)-1,1-difluoro-3-oxopropan-2-yl)-6-(cyclopentyloxy)naphthalene-2-sulfonamide trifluoroacetate] | 1 to 10
NC1CC2CCC(C1)N2C(=O)[C@@H](NS(=O)(=O)c1ccc(OCC2CCCCC2)cc1)C(F)(F)c1ccc(Cl)cc1 (stereo partly drawn) [Compound 29-1, N-((2R)-3-(3-amino-8-azabicyclo[3.2.1]octan-8-yl)-1-(4-chlorophenyl)-1,1-difluoro-3-oxopropan-2-yl)-4-(cyclohexylmethoxy)benzenesulfonamide trifluoroacetate] | < 1
NC1CC2CCC(C1)N2C(=O)[C@H](NS(=O)(=O)c1ccc(OCC2CCCCC2)cc1)C(F)(F)c1ccc(Cl)cc1 (stereo partly drawn) [Compound 29-2, N-((2S)-3-(3-amino-8-azabicyclo[3.2.1]octan-8-yl)-1-(4-chlorophenyl)-1,1-difluoro-3-oxopropan-2-yl)-4-(cyclohexylmethoxy) benzenesulfonamide trifluoroacetate] | 1 to 10
NC1CCN(C(=O)[C@@H](NS(=O)(=O)c2ccc(OCC3CCCCC3)cc2)C(F)(F)c2ccc(Cl)cc2)CC1 [Compound 30-1, (R)—N-(3-(4-aminopiperidin-1-yl)-1-(4-chlorophenyl)-1,1-difluoro-3-oxopropan-2-yl)-4-(cyclohexylmethoxy)benzenesulfonamide trifluoroacetate] | 1 to 10
NC1CCN(C(=O)[C@H](NS(=O)(=O)c2ccc(OCC3CCCCC3)cc2)C(F)(F)c2ccc(Cl)cc2)CC1 [Compound 30-2, (S)—N-(3-(4-aminopiperidin-1-yl)-1-(4-chlorophenyl)-1,1-difluoro-3-oxopropan-2-yl)-4-(cyclohexylmethoxy)benzenesulfonamide trifluoroacetate] | 10 to 30
CC(C)Oc1ccc2cc(S(=O)(=O)N[C@H](C(=O)N3C4CCC3CC(N)C4)C(F)(F)c3ccc(-c4ccccc4)cc3)ccc2c1 (stereo partly drawn) [Compound 31-1, N-((2R)-1-([1,1′-biphenyl]-4-yl)-3-(3-amino-8-azabicyclo[3.2.1]octan-8-yl)-1,1-difluoro-3-oxopropan-2-yl)-6-isopropoxynaphthalene-2-sulfonamide trifluoroacetate] | 1 to 10
CC(C)Oc1ccc2cc(S(=O)(=O)N[C@@H](C(=O)N3C4CCC3CC(N)C4)C(F)(F)c3ccc(-c4ccccc4)cc3)ccc2c1 (stereo partly drawn) [Compound 31-2, N-((2S)-1-([1,1′-biphenyl]-4-yl)-3-(3-amino-8-azabicyclo[3.2.1]octan-8-yl)-1,1-difluoro-3-oxopropan-2-yl)-6-isopropoxynaphthalene-2-sulfonamide trifluoroacetate] | 10 to 30
NC1CCN(C(=O)[C@@H](NS(=O)(=O)c2ccc3cc(OC4CCCC4)ccc3c2)C(F)(F)c2ccc(Br)cc2)CC1 [Compound 32-1, (R)—N-(3-(4-aminopiperidin-1-yl)-1-(4-bromophenyl)-1,1-difluoro-3-oxopropan-2-yl)-6-(cyclopentyloxy)naphthalene-2-sulfonamide trifluoroacetate] | < 1
NC1CCN(C(=O)[C@H](NS(=O)(=O)c2ccc3cc(OC4CCCC4)ccc3c2)C(F)(F)c2ccc(Br)cc2)CC1 [Compound 32-2, (S)—N-(3-(4-aminopiperidin-1-yl)-1-(4-bromophenyl)-1,1-difluoro-3-oxopropan-2-yl)-6-(cyclopentyloxy)naphthalene-2-sulfonamide trifluoroacetate] | 10 to 30
NC1CC2CCC(C1)N2C(=O)[C@@H](NS(=O)(=O)c1ccc2cc(OC3CCCCC3)ccc2c1)C(F)(F)c1ccc(Br)cc1 (stereo partly drawn) [Compound 33-1, N-((2R)-3-(3-amino-8-azabicyclo[3.2.1]octan-8-yl)-1-(4-bromophenyl)-1,1-difluoro-3-oxopropan-2-yl)-6-(cyclohexyloxy)naphthalene-2-sulfonamide trifluoroacetate] | < 1
NC1CC2CCC(C1)N2C(=O)[C@H](NS(=O)(=O)c1ccc2cc(OC3CCCCC3)ccc2c1)C(F)(F)c1ccc(Br)cc1 (stereo partly drawn) [Compound 33-2, N-((2S)-3-(3-amino-8-azabicyclo[3.2.1]octan-8-yl)-1-(4-bromophenyl)-1,1-difluoro-3-oxopropan-2-yl)-6-(cyclohexyloxy)naphthalene-2-sulfonamide trifluoroacetate] | 30 to 100
CN([C@H](C(=O)N1C2CCC1CC(N)C2)C(F)(F)c1ccc(Br)cc1)S(=O)(=O)c1ccc2cc(OC3CCCC3)ccc2c1 (stereo partly drawn) [Compound 34-1, N-((2R)-3-(3-amino-8-azabicyclo[3.2.1]octan-8-yl)-1-(4-bromophenyl)-1,1-difluoro-3-oxopropan-2-yl)-6-(cyclopentyloxy)-N-methylnaphthalene-2-sulfonamide trifluoroacetate] | < 1
CN([C@@H](C(=O)N1C2CCC1CC(N)C2)C(F)(F)c1ccc(Br)cc1)S(=O)(=O)c1ccc2cc(OC3CCCC3)ccc2c1 (stereo partly drawn) [Compound 34-2, N-((2S)-3-(3-amino-8-azabicyclo[3.2.1]octan-8-yl)-1-(4-bromophenyl)-1,1-difluoro-3-oxopropan-2-yl)-6-(cyclopentyloxy)-N-methylnaphthalene-2-sulfonamide trifluoroacetate] | 30 to 100
NC1CC2CCC(C1)N2C(=O)[C@@H](NS(=O)(=O)c1ccc(OCC2CCCCC2)cc1)C(F)(F)c1ccc(-c2ccccc2)cc1 (stereo partly drawn) [Compound 35-1, N-((2R)-1-([1,1′-biphenyl]-4-yl)-3-(3-amino-8-azabicyclo[3.2.1]octan-8-yl)-1,1-difluoro-3-oxopropan-2-yl)-4-(cyclohexylmethoxy)benzenesulfonamide trifluoroacetate] | < 1
